{"source": "patent US12618846B2", "about": "“Method and device for imaging fluorescent proteins in near- and short-wave infrared” (HELMHOLTZ ZENTRUM MÜNCHEN—DEUTSCHES FORSCHUNGSZENTRUM FÜR …, priority 2019, dated 2026)", "key": {"[1]": {"assay": "Three-color excitation-multiplexed SWIR imaging of awake mouse", "format": "in vivo", "settings": "80 minutes after i.p. 10 micelles and i.v. 3 micelles and ICG; top-view", "from_the_text": "To obtain real-time images in three colors, heptamethine 10 was encapsulated in PEG-coated micelles to impart water solubility. In vivo, we introduced 10 micelles by intraperitoneal injection, and 3 micelles followed by ICG by intravenous injection. […] After establishing both the technology and the molecular tools for multiplexed real-time observation of function in mice, the next goal was to enhance existing SWIR imaging applications.\nPhysiological properties such as heart-rate, respiratory rate, thermoregulation, metabolism, and the function of the central nervous system, are highly impacted by anesthesia. […] Due to frame rates which are faster than macroscopic movements in animals, the heart rate and respiratory rate in awake animals can be quantified. […] The method allows physiology to be monitored with minimal perturbation of the animal's usual environment. […] The real-time collection can be visualized by observing close time-points in which a continuous movement is monitored without visual aberrations (FIG. 16A). In addition to assessing natural physiology, these tools foreshadow more complex experiments in which the location of multiple probes could be monitored over long periods of time, non-invasively and without the need for anesthesia."}, "[2]": {"assay": "Two-color SWIR lymphatic imaging of narcotized mouse", "format": "in vivo", "settings": "intradermally into footpads and base of tail, after 30 min", "from_the_text": "The FIGS. 9A, 9B and 9C show merged frames representing the lymphatic system of a narcotized mouse in two-color real-time acquisition. With detector exposure time of 20 ms, a frame rate of 21 fps is achieved with the developed system. […] Then, Julo 7 micelles have been injected intravenously. The lymphatic functional imaging is later enhanced by the assignment of two distinct colors.\nLight Source (785 nm laser & 1064 nm laser sequentially triggered, pulse length=21 ms)→Collimator→Mirror→1100 nm Short-pass Filter→Engineered Diffuser→Sample. The arrows represent the light path. Accordingly, the light path has been set up as follows: from Light Source (785 nm laser & 1064 nm laser sequentially triggered, pulse length=21 ms) to Collimator to Mirror to 1100 nm Short-pass Filter to Engineered Diffuser to Sample.\nSample→3×f=500 mm C-Coated lenses→Silver Mirror→1000 nm Long-pass Filter→2×f=200 mm C-coated lenses→InGaAs Detector. The arrows represent the light path. Accordingly, the light path has been set up as follows: from Sample to 3×f=500 mm C-Coated lenses to Silver Mirror to 1000 nm Long-pass Filter to 2×f=200 mm C-coated lenses to InGaAs Detector.\nSample: ICG (aqueous, 13 nmol intradermally [footpads and base of tail]) and Julo7 (micelles, 70 nmol intravenously)."}, "[3]": {"settings": "stated as known property; cited from earlier work"}, "[4]": {"settings": "reference value used for relative measurements; cited from earlier work"}, "[5]": {"assay": "Absorptive and emissive properties of flavylium heptamethine dyes in dichloromethane", "format": "physicochemical", "from_the_text": "As the highest energy absorber of the series, the 7-methoxy substituted dye 10 is ˜44 nm blue shifted from Flav7, with absorption at 984 nm, close to the 980 nm laser line, and emission at 1008 nm. […] The diphenylamino substituted 7 is ˜23 nm red-shifted compared to Flav7, while julolidine derivative 3 is red-shifted by ˜35 nm with absorption at 1061 nm and emission at 1088 nm. Due to its absorption maximum and high brightness (εmax), 3 was a promising candidate for SWIR imaging with 1064 nm excitation and was named Julo7. […] This increased understanding of the relationship between structural and absorption/emission wavelengths sets-up opportunities for predicting photophysical properties of the scaffold.\nThe absorption coefficients (ε) of the series vary from ˜110,000 to ˜240,000 M^−1cm^−1. […] The fluorescence quantum yields (φF) (relative measurements to IR-26=0.05%) remain rather constant, in the 0.4 to 0.6% range, despite red- or blue-shifted behavior, providing a platform for intensity-matched probes. […]\nFor excitation multiplexing, we are most interested in properties of the series of polymethine fluorophores when exited at 980 and 1064 nm. Thus, we calculated brightness (εA) values for each dye using the absorbance coefficient at the respective wavelengths. […]"}}}
{"smiles": "CC1(C)C(/C=C/C=C/C=C/C=C2\\N(CCCCS(=O)(=O)[O-])c3ccc4ccccc4c3C2(C)C)=[N+](CCCCS(=O)(=O)[O-])c2ccc3ccccc3c21.[Na+]", "note": "[ICG, indocyanine green]", "values": [{"measurement": "location of probe in awake mouse", "setting": "[1]", "result": "exclusively in the liver"}, {"measurement": "conduction through the lymphatic vessels", "setting": "[2]", "result": "efficiently conducted through the lymphatic vessels"}, {"measurement": "clearance route", "setting": "[3]", "result": "clears efficiently and exclusively from the liver"}]}
{"smiles": "ClC1=C(/C=C/c2cc(-c3ccccc3)[s+]c3ccccc23)CCC/C1=C\\C=C1/C=C(c2ccccc2)Sc2ccccc21.[O-][Cl+3]([O-])([O-])[O-]", "note": "[IR-26]", "values": [{"measurement": "fluorescence quantum yield of reference standard", "setting": "[4]", "result": 0.05, "unit": "%"}]}
{"smiles": "CN(C)c1ccc2c(c1)OC(c1ccccc1)=C/C2=C\\C=C1/CCCC(/C=C/c2cc(-c3ccccc3)[o+]c3cc(N(C)C)ccc23)=C1Cl", "note": "[dye 1]", "values": [{"measurement": "λmax,abs (absorption)", "setting": "[5]", "result": 1027, "unit": "nm"}, {"measurement": "λmax,em (emission)", "setting": "[5]", "result": 1053, "unit": "nm"}]}
